Experimental data: patent publication US20240109843A1, “BENZALDEHYDE COMPOUNDS WITH DIRECT POLYMER DESTABILIZING EFFECTS TO TREAT SICKLE CELL DISEASE” (VIRGINIA COMMONWEALTH UNIVERSITY, priority 2018, published 2024)

Columns and labels:
[1] = test system: RBCs from donors with homozygous SCD; experiment: Oxygen-independent sickle inhibition in SS blood suspensions under anoxia (100% nitrogen); format: cell-based, human; settings: anoxia
Description: To establish oxygen-independent sickle inhibition, the incubation chamber was subsequently opened and exposed to room air for 15 minutes to ensure complete re-oxygenation and reversal of the sickled cells to normal round cells. Reversal was confirmed by microscopy. The incubation chamber was then closed, and the assay was repeated with incubation in 100% nitrogen gas for 1 hour (for screening), or up to 2.5 h (for time-course studies), with collection and fixation of blood aliquots at defined intervals. Aliquot samples were again subjected to microscopic morphological analysis of bright field images to identify the proportion of sickled and non-sickled cells, and sickle inhibition calculated.

Hb [2] = target: T1, Hb (Homo sapiens, UniProt P69905); experiment: Drug partitioning studies, fixed and unfixed Hb adducts in non-sickling AA blood; format: cell-based; parameters: Hemoglobin modification, studies using non-sickling AA blood; from tissue; host or cells: non-sickling (AA) human blood, red blood cells; settings: 2 mM; for Fixed Adducts (%) / Unfixed Adduct (%): 6 biological replicates; for Partitioning Ratio (%): fixed relative to unfixed adducts
Description: RBC partitioning studies were conducted both for SS RBCs following sickling studies above, or as separate independent studies with non-sickle blood. Briefly, aliquots of blood samples, which had been incubated with test molecules, were lysed either in deionized water (un-fixed), or in water containing 50 mM sodium borohydride (fixed). Samples were subjected to cation exchange HPLC analyses, as described above. Modified […] (Hb adducts) was determined as a proportion of total Hb in each sample, and partitioning ratio was determined as the relative fraction of Hb modification of fixed samples compared to corresponding non-fixed samples. The partitioning ratio is the relative fraction of Hb that was modified intracellularly by molecules that permeated the RBC membrane, as compared to unfixed adducts which reflect Hb binding without RBC membrane permeation.
Target sequence in this assay (P69905 2-142 limits assumed): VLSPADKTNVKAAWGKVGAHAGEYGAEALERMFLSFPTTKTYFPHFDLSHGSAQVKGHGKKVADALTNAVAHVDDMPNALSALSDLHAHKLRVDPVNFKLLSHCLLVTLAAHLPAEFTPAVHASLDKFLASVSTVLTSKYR
Target sequence in this assay (P68871 2-147 partner limits assumed): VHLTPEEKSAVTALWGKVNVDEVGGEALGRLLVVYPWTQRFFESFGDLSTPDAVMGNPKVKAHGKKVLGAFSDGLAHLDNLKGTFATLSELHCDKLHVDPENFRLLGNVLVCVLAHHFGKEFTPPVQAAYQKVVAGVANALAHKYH

Hb [3] = target: T1, Hb; experiment: Hb modification (drug-adduct formation) in SS blood suspensions by cation-exchange HPLC; format: binding; parameters: Blood suspensions from subjects with homozygous SCD; from tissue; host or cells: blood suspensions (20% hematocrit) from donors with homozygous SCD; lysates of the treated red cells; settings: 2 mM, 4 biological replicates
Description: All compounds (Comp 1-13) and comparator molecules (VZHE-039, PP-14, INN-310, and Voxelotor) were evaluated following established procedures. Blood samples from individual donors with homozygous SCD (obtained with informed consent) were diluted using Hemox buffer solution with the addition of glucose (10 mM) and BSA (0.2%) to adjust hematocrit of the blood suspensions to 20%, which standardizes the procedure to normalize the ratio of RBCs to drug, for assay consistency and reproducibility. Briefly, blood suspensions were incubated under room air in the presence of various concentrations of test compounds (0-2 mM) at 37° C. for 1 hour in 96-well round bottom plates. Subsequently, the suspensions were incubated with a hypoxic gas mixture (2.5% Oxygen gas/balance Nitrogen gas) at 37° C. for up to 2 hours prior to fixation with 2% glutaraldehyde solution without exposure to air. The fixated blood aliquots were evaluated by microscopic morphological analysis (image analysis on Image J software) to identify the proportion of sickled and non-sickled RBCs, and sickle inhibition calculated based on the % change from negative control (DMSO).
The residual samples were then washed in phosphate-buffered saline, and hemolyzed in hypotonic lysis buffer, with or without sodium borohydride (50 mM). Aliquots obtained from the lysates with or without sodium borohydride (to reduce Schiff base adducts) were also assessed for level of Hb modification (drug-adduct formation) by cation-exchange HPLC (Hitachi D-7000 Series, Hitachi Instruments, Inc., San Jose, CA) with a weak cation-exchange column (Poly CAT A: 50 mm×4.6 mm, Poly LC, Inc., Columbia, MD). Hemoglobin isotype peaks are eluted with a linear gradient of phase B from 0% to 80% at A410 nm (Mobile Phase A: 40 mM Bis-Tris, 2 mM KCN, pH 6.9; Phase B: 40 mM Bis-Tris, 2 mM KCN, 0.2 M sodium chloride, pH 6.55). Clarified lysate from normal human adult […] (Hb A), as well as commercial standards containing approximately equal amounts of Hb F, A, S and C (Helena Laboratories, Beaumont, TX), were utilized as reference isotypes. Reduced samples were used to assess “fixed adduct” formation (dependent on RBC membrane permeability), whereas non-reduced samples assessed drug-adduct formation independent of drug permeability.
Target sequence in this assay (P69905 2-142): as the sequence (P69905 2-142 limits assumed) above
Target sequence in this assay (P68871 with tags, fused parts or gaps E7V partner): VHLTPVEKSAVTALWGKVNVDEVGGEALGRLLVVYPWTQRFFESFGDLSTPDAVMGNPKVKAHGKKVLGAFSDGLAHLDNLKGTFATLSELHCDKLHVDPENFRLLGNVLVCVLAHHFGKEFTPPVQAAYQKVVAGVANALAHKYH

sickle red blood cells = experiment: Antisickling study with human sickle blood under 2.5% oxygen; format: cell-based; settings: Homo sapiens, Erythrocyte, sickle RBCs, 2.5% oxygen, read-out: sickling inhibition; for inhibition at 500 µM: 0.5 mM; for inhibition at 1000 µM: 1 mM
Description: (§1) Blood suspensions from subjects with homozygous SCD (resuspended in Hemox™ buffer to a final hematocrit 20%) were incubated under air in the absence or presence of the compounds (0.5 mM, 1 mM and 2 mM) at 37° C. for 1 h to ensure that binding had attained equilibrium. The suspensions were then incubated under hypoxic conditions (2.5% oxygen/97.5% nitrogen) at 37° C. for 1 h. Aliquot samples were fixed with 2% glutaraldehyde solution without exposure to air, and then subjected to microscopic morphological analysis of bright field images (at 40× magnification) of single layer cells on an Olympus BX40 microscope fitted with an Infinity Lite B camera (Olympus), and the coupled Image Capture software. The residual samples were washed in phosphate-buffer saline, and hemolyzed in hypotonic lysis buffer for subsequent Hb-modification and oxygen equilibrium analyses.
The studies described above were conducted using normal whole blood. Next, we investigated whether the improvement in Hb oxygen affinity and the compounds sustained activity also translated to similar effects in SS blood from SCD patients. […] At 1 mM, PP8 and PP9 inhibited nearly 100% of sickling, while PP2, PP6, PP14 inhibited sickling by more than 70%. […] It is clear that the modifications of the present compounds has led to significant improvement in antisickling activity.

sickle Hb = target: T2, sickle Hb (Homo sapiens, UniProt P69905); experiment: Oxygen equilibrium (P50 shift) of lysates from treated sickle blood; format: cell-based; settings: 0.5, 1 and 2 mM, SS blood
T2 construct: Blood suspensions from subjects with homozygous SCD; from tissue; host or cells: blood suspensions (20% hematocrit) from donors with homozygous SCD; lysates of the treated red cells
T2 sequence (P69905 2-142 limits assumed): as the sequence (P69905 2-142 limits assumed) above
Description: as §1
For oxygen equilibrium studies, approximately 100 μL aliquot samples from the above clarified lysate were added to 4 mL of 0.1M potassium phosphate buffer, pH 7.0, in cuvettes and subjected to hemoximetry analysis using a Hemox™ Analyzer (TCS Scientific Corp.) to assess P50 shifts. Degree of P50 shift (ΔP50) was expressed as percentage fractions of control DMSO-treated samples.

Hb [4] = target: T1, Hb; experiment: Oxygen equilibrium curve (OEC) studies with normal whole blood; format: cell-based; parameters: Hemoglobin modification, studies using non-sickling AA blood; from tissue; host or cells: non-sickling (AA) human blood, red blood cells; settings: normal whole blood, 0.5, 1, 2 mM
Description: Oxygen equilibrium curve (OEC) studies to determine the effect of the compounds on Hb affinity for oxygen were conducted following standard procedure. Whole blood (30% hematocrit) was incubated in the absence or presence of compounds (0.5 mM, 1.0 mM and 2.0 mM) solubilized in DMSO. […] After equilibration, the sample was removed via syringe and aspirated into an ABL 700 series table top automated blood gas analyzer (Radiometer America, Inc., Westlake, OH) to determine total hemoglobin (tHb), hematocrit (Hct), pH, pCO2, partial pressure of oxygen (pO2), and the Hb-O2 saturation (sO2) values. The measured values of pO2 and sO2 at each oxygen saturation level were then subjected to nonlinear regression analysis using the software Scientist (Micromath, Salt Lake City UT) with the following equation: […]
Aromatic aldehydes are known to prevent hypoxia-induced Hb S polymerization by increasing the Hb affinity for oxygen. We therefore tested the PP compounds in a dose-dependent manner (0.5, 1, 2 mM) for their effect on Hb oxygen binding property. […] These findings confirmed that the potent in vitro activity previously seen in TD7 was at least conserved in the novel PP compounds.
Target sequence in this assay (P69905 2-142 limits assumed): as above
Target sequence in this assay (P68871 2-147 partner limits assumed): as the sequence (P68871 2-147 partner limits assumed) above

intracellular Hb = target: T3, intracellular Hb (Mus musculus, UniProt P01942); experiment: In vivo modification of intracellular Hb in wild-type mice; parameters: species or system C57BL/6 mice; settings: IP 150 mg/kg, 30% PEG300, 6 h
T3 construct: from tissue; host or cells: blood (red cell lysates) of dosed C57BL/6 mice
T3 sequence (P01942 2-142 limits assumed): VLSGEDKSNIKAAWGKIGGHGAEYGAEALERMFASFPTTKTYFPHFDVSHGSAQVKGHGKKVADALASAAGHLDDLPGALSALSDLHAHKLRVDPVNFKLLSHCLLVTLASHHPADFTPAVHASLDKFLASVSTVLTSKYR
T3 sequence (P02088 2-147 partner limits assumed): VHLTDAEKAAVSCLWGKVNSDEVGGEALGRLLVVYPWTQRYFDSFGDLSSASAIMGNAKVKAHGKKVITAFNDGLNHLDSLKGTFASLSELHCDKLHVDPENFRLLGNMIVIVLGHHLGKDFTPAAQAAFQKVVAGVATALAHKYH
Description: We tested in vivo pharmacologic (pharmacodynamics) effects of select PP compounds in C57BL/6 mice. The animals were treated with a single intraperitoneal (IP) (150 mg/kg body weight) dose of PP6, PP10, PP14, and TD7, which were formulated with 30% PEG300. Blood samples were obtained prior to treatment (0) and 1, 3 and 6 h post-treatment, via submandibular bleeding, and subjected to hemolysis using standard methods. Clarified lysates, free of cell debris and red blood cell ghosts were analyzed by cation-exchange HPLC to determine the levels of drug-modified hemoglobin (adducts); and to conduct oxygen equilibrium studies to determine degrees of shift in p50 values using methodologies described earlier for in vitro studies on human samples. In a subsequent follow-up experiment, a new excipient obtained from Catalent Pharma Solutions was also used to formulate PP14 and used for a single intraperitoneal (IP) and oral (150 mg/kg body weight) dose. Blood samples were obtained prior to treatment (0) and 1, 3 or 5 h post-treatment, via submandibular bleeding, and used to determine the levels of drug-modified hemoglobin (adducts); and to conduct oxygen equilibrium studies to determine degrees of shift in p50 values as described above.

Which “polymer destabilizing effect / sickle inhibition in anoxia (in words)” value [1] does the source give for `O=Cc1c(F)cc(F)cc1OCc1ccccn1` [Comp 9, 2,4-difluoro-6-(pyridin-2-ylmethoxy)benzaldehyde] here?
The value was “completely negates the polymer destabilization effects”.

What about the “Fixed Adducts (%)” value (Hb [2]) of the same molecule?
Its value is 72.7 ± 4.1%.

What about the “Unfixed Adduct (%)” value (Hb [2]) of the same molecule?
Its value is 69.4 ± 7.5%.

What about the “Partitioning Ratio (%)” value (Hb [2]) of the same molecule?
The value was 105.2 ± 5.9%.

And the “Hb Modification (%)” value (Hb [3])?
The value was 69.1 ± 11.8%.

Which “polymer destabilizing effect / sickle inhibition in anoxia (in words)” value [1] does the source give for `O=Cc1c(OCc2cccnc2)ccc(F)c1O` [Comp 12, 3-fluoro-2-hydroxy-6-(pyridin-3-ylmethoxy)benzaldehyde] here?
The value was “significantly reduced the potency of polymer inhibition”.

And the “Fixed Adducts (%)” value (Hb [2])?
The value was 80.4 ± 9.1%.

What about the “Unfixed Adduct (%)” value (Hb [2]) of the same molecule?
Its value is 80.8 ± 5.9%.

And the “Partitioning Ratio (%)” value (Hb [2])?
Its value is 99.4 ± 4.2%.

And the “Hb Modification (%)” value (Hb [3])?
Its value is 99.8 ± 0.4%.

Which results are given for `O=Cc1c(F)cc(F)cc1OCc1ncccc1F` [Comp 13, 2,4-difluoro-6-((3-fluoropyridin-2-yl)methoxy)benzaldehyde]?
polymer destabilizing effect / sickle inhibition in anoxia (in words) [1]: completely negates the polymer destabilization effects; Fixed Adducts (%) (Hb [2]): 80.7 ± 4.8%; Unfixed Adduct (%) (Hb [2]): 78.4 ± 6.1%; Partitioning Ratio (%) (Hb [2]): 103.0 ± 2.9%; Hb Modification (%) (Hb [3]): 79.1 ± 10.3%

Which results are given for `COc1ccc(OCc2ccccn2)c(C=O)c1` [INN-310, reference compound]?
polymer destabilizing effect / sickle inhibition in anoxia (in words) [1]: only weak potency in anoxia; Fixed Adducts (%) (Hb [2]): 82.0 ± 3.1%; Unfixed Adduct (%) (Hb [2]): 79.7 ± 4.3%; Partitioning Ratio (%) (Hb [2]): 103.0 ± 1.7%; Hb Modification (%) (Hb [3]): 65.7 ± 6.0%

Which results are given for `COC(=O)c1cccnc1COc1ccc(OC)cc1C=O` [PP2, Methyl 2-((2-formyl-4-methoxyphenoxy)methyl)nicotinate]?
inhibition at 500 µM (sickle red blood cells): > 35%; inhibition at 1000 µM (sickle red blood cells): > 70%; increase of Hb affinity for oxygen in sickle blood (in words) (sickle Hb): only marginally increasing Hb affinity for oxygen; effect on Hb oxygen binding property (OEC) (Hb [4]): most significant activities

Which “increase of Hb affinity for oxygen in sickle blood (in words)” value (sickle Hb) does the source give for `COC(=O)c1cccc(COc2ccc(OC)cc2C=O)n1` [PP3, Methyl 6-((2-formyl-4-methoxyphenoxy)methyl)picolinate] here?
Its value is “only marginally increasing Hb affinity for oxygen”.

What does the source list for `COC(=O)c1cccnc1COc1cccc(O)c1C=O` [PP6, Methyl 2-((2-formyl-3-hydroxyphenoxy)methyl)nicotinate]?
inhibition at 500 µM (sickle red blood cells): > 35%; inhibition at 1000 µM (sickle red blood cells): > 70%; increase of Hb affinity for oxygen in sickle blood (in words) (sickle Hb): only marginally increasing Hb affinity for oxygen; modified Hb (intracellular Hb): 16.9±1.4%; effect on Hb oxygen binding property (OEC) (Hb [4]): most significant activities

For `COC(=O)c1ncccc1COc1ccc(OC)cc1C=O` [PP8, Methyl 3-((2-formyl-4-methoxyphenoxy)methyl)picolinate], which inhibition at 500 µM (sickle red blood cells) is on record?
Its inhibition at 500 µM is greater than 35%.

And the inhibition at 1000 µM (sickle red blood cells)?
The inhibition at 1000 µM was roughly 100%.

What about the “increase of Hb affinity for oxygen in sickle blood (in words)” value (sickle Hb) of the same molecule?
Its value is “only marginally increasing Hb affinity for oxygen”.

Which results are given for `COC(=O)c1ccc(COc2ccc(OC)cc2C=O)nc1` [PP9]?
inhibition at 1000 µM (sickle red blood cells): ~100%; increase of Hb affinity for oxygen in sickle blood (in words) (sickle Hb): only marginally increasing Hb affinity for oxygen; effect on Hb oxygen binding property (OEC) (Hb [4]): most significant activities
